Laboratory results as given in PubChem BioAssay (NCI).
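Growth conditions: 96-well plates. Treatment: test compound, 48 hours, 5 concentrations. Analysis: linear interpolation between bracketing concentrations; unreached endpoints set to highest concentration. Here, GI50 denotes the concentration required for 50% inhibition of growth. TGI: concentration producing complete growth inhibition.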

How the values were obtained:
Experiment in all cases: DTP human tumour cell line panel, 48 h
NCI-H460 lung = test system: NCI-H460 lung
OVCAR-8 ovarian = test system: OVCAR-8 ovarian
HCT-15 colon = test system: HCT-15 colon
HS 578T breast = test system: HS 578T breast
SR leukemia = test system: SR leukemia
RPMI-8226 leukemia = test system: RPMI-8226 leukemia
NCI/ADR-RES ovarian = test system: NCI/ADR-RES ovarian
HL-60(TB) leukemia = test system: HL-60(TB) leukemia
A549 NSCLC = test system: A549 NSCLC
BT-549 breast = test system: BT-549 breast
CAKI-1 renal = test system: CAKI-1 renal
SNB-75 CNS = test system: SNB-75 CNS
UACC-257 melanoma = test system: UACC-257 melanoma
UO-31 renal = test system: UO-31 renal
MCF7 breast = test system: MCF7 breast
SK-MEL-2 melanoma = test system: SK-MEL-2 melanoma
KM12 colon = test system: KM12 colon
HCT-116 colon = test system: HCT-116 colon
IGROV1 ovarian = test system: IGROV1 ovarian
RXF 393 renal = test system: RXF 393 renal
HOP-92 NSCLC = test system: HOP-92 NSCLC
DU-145 prostate = test system: DU-145 prostate
SN12C renal = test system: SN12C renal
OVCAR-4 ovarian = test system: OVCAR-4 ovarian
OVCAR-5 ovarian = test system: OVCAR-5 ovarian
SF-295 CNS = test system: SF-295 CNS
SK-MEL-28 melanoma = test system: SK-MEL-28 melanoma
M14 melanoma = test system: M14 melanoma
NCI-H23 lung = test system: NCI-H23 lung
ACHN renal = test system: ACHN renal
HCC-2998 colon = test system: HCC-2998 colon
SF-539 CNS = test system: SF-539 CNS
SNB-19 CNS = test system: SNB-19 CNS
UACC-62 melanoma = test system: UACC-62 melanoma
PC-3 prostate = test system: PC-3 prostate
A498 renal = test system: A498 renal
SK-MEL-5 melanoma = test system: SK-MEL-5 melanoma
SK-OV-3 ovarian = test system: SK-OV-3 ovarian
CCRF-CEM leukemia = test system: CCRF-CEM leukemia
HT29 colon = test system: HT29 colon
MOLT-4 leukemia = test system: MOLT-4 leukemia
HOP-62 NSCLC = test system: HOP-62 NSCLC
LOX IMVI melanoma = test system: LOX IMVI melanoma
COLO 205 colon = test system: COLO 205 colon
SF-268 CNS = test system: SF-268 CNS
U251 CNS = test system: U251 CNS
OVCAR-3 ovarian = test system: OVCAR-3 ovarian
SW-620 colon = test system: SW-620 colon
786-0 renal = test system: 786-0 renal
MDA-MB-231 breast = test system: MDA-MB-231 breast
T-47D breast = test system: T-47D breast
K-562 leukemia = test system: K-562 leukemia
NCI-H226 lung = test system: NCI-H226 lung
MDA-MB-435 = test system: MDA-MB-435
EKVX NSCLC = test system: EKVX NSCLC
MALME-3M melanoma = test system: MALME-3M melanoma
NCI-H522 lung = test system: NCI-H522 lung
TK-10 renal = test system: TK-10 renal

Cc1ccc2c(n1)C(=O)C(Cl)=C(Nc1ccc(C#N)cc1)C2=O
GI50 (NCI-H460 lung): 30.2 µM | TGI (NCI-H460 lung): > 100 µM | GI50 (OVCAR-8 ovarian): 10.1 µM | TGI (OVCAR-8 ovarian): 28.2 µM | GI50 (HCT-15 colon): 1740 nM | TGI (HCT-15 colon): 3.66 µM | GI50 (HS 578T breast): 14.6 µM | TGI (HS 578T breast): 56.1 µM | GI50 (SR leukemia): 375 nM | TGI (SR leukemia): 2250 nM | GI50 (RPMI-8226 leukemia): 2190 nM | TGI (RPMI-8226 leukemia): 5.74 µM | GI50 (NCI/ADR-RES ovarian): 3.55 µM | TGI (NCI/ADR-RES ovarian): 17.7 µM | GI50 (HL-60(TB) leukemia): 1080 nM | TGI (HL-60(TB) leukemia): 3.05 µM | GI50 (A549 NSCLC): 35.6 µM | TGI (A549 NSCLC): > 100 µM | GI50 (BT-549 breast): 2800 nM | TGI (BT-549 breast): 12 µM | GI50 (CAKI-1 renal): 1700 nM | TGI (CAKI-1 renal): 3.31 µM | GI50 (SNB-75 CNS): 6.8 µM | TGI (SNB-75 CNS): 34.5 µM | GI50 (UACC-257 melanoma): 1640 nM | TGI (UACC-257 melanoma): 3.17 µM | GI50 (UO-31 renal): 1540 nM | TGI (UO-31 renal): 2970 nM | GI50 (MCF7 breast): 1900 nM | TGI (MCF7 breast): 4.62 µM | GI50 (SK-MEL-2 melanoma): 11.6 µM | TGI (SK-MEL-2 melanoma): 24.6 µM | GI50 (KM12 colon): 19.9 µM | TGI (KM12 colon): > 100 µM | GI50 (HCT-116 colon): 1830 nM | TGI (HCT-116 colon): 3.78 µM | GI50 (IGROV1 ovarian): 10.7 µM | TGI (IGROV1 ovarian): 24.7 µM | GI50 (RXF 393 renal): 1450 nM | TGI (RXF 393 renal): 2790 nM | GI50 (HOP-92 NSCLC): 1710 nM | TGI (HOP-92 NSCLC): 3.41 µM | GI50 (DU-145 prostate): 2130 nM | TGI (DU-145 prostate): 4.48 µM | GI50 (SN12C renal): 5.68 µM | TGI (SN12C renal): 25.4 µM | GI50 (OVCAR-4 ovarian): 1590 nM | TGI (OVCAR-4 ovarian): 3.08 µM | GI50 (OVCAR-5 ovarian): 17.7 µM | TGI (OVCAR-5 ovarian): 34.8 µM | GI50 (SF-295 CNS): 17.6 µM | TGI (SF-295 CNS): 39.2 µM | GI50 (SK-MEL-28 melanoma): 2460 nM | TGI (SK-MEL-28 melanoma): 5.74 µM | GI50 (M14 melanoma): 6.12 µM | TGI (M14 melanoma): 21.9 µM | GI50 (NCI-H23 lung): 1840 nM | TGI (NCI-H23 lung): 4.58 µM | GI50 (ACHN renal): 1810 nM | TGI (ACHN renal): 3.3 µM | GI50 (HCC-2998 colon): 3.83 µM | TGI (HCC-2998 colon): 16.1 µM | GI50 (SF-539 CNS): 10.2 µM | TGI (SF-539 CNS): 23 µM | GI50 (SNB-19 CNS): 15.7 µM | TGI (SNB-19 CNS): 39.8 µM | GI50 (UACC-62 melanoma): 10.1 µM | TGI (UACC-62 melanoma): 25.9 µM | GI50 (PC-3 prostate): 10 µM | TGI (PC-3 prostate): 25.1 µM | GI50 (A498 renal): 16.3 µM | TGI (A498 renal): > 100 µM | GI50 (SK-MEL-5 melanoma): 4.75 µM | TGI (SK-MEL-5 melanoma): 17.3 µM | GI50 (SK-OV-3 ovarian): 11.7 µM | TGI (SK-OV-3 ovarian): 27.7 µM | GI50 (CCRF-CEM leukemia): 358 nM | TGI (CCRF-CEM leukemia): 2200 nM | GI50 (HT29 colon): 3.06 µM | TGI (HT29 colon): 10.6 µM | GI50 (MOLT-4 leukemia): 470 nM | TGI (MOLT-4 leukemia): 2560 nM | GI50 (HOP-62 NSCLC): 17.9 µM | TGI (HOP-62 NSCLC): 50.7 µM | GI50 (LOX IMVI melanoma): 1530 nM | TGI (LOX IMVI melanoma): 3.46 µM | GI50 (COLO 205 colon): 1660 nM | TGI (COLO 205 colon): 3.51 µM | GI50 (SF-268 CNS): 8.36 µM | TGI (SF-268 CNS): 25.6 µM | GI50 (U251 CNS): 13 µM | TGI (U251 CNS): 28.7 µM | GI50 (OVCAR-3 ovarian): 1840 nM | TGI (OVCAR-3 ovarian): 3.51 µM | GI50 (SW-620 colon): 1760 nM | TGI (SW-620 colon): 3.87 µM | GI50 (786-0 renal): 1740 nM | TGI (786-0 renal): 3.24 µM | GI50 (MDA-MB-231 breast): 5.59 µM | TGI (MDA-MB-231 breast): 25.8 µM | GI50 (T-47D breast): 1870 nM | TGI (T-47D breast): 4.79 µM | GI50 (K-562 leukemia): 351 nM | TGI (K-562 leukemia): 1870 nM | GI50 (NCI-H226 lung): 4.36 µM | TGI (NCI-H226 lung): 17.6 µM | GI50 (MDA-MB-435): 6.99 µM | TGI (MDA-MB-435): 22.7 µM | GI50 (EKVX NSCLC): 2190 nM | TGI (EKVX NSCLC): 5.59 µM | GI50 (MALME-3M melanoma): 1740 nM | TGI (MALME-3M melanoma): 3.36 µM | GI50 (NCI-H522 lung): 1750 nM | TGI (NCI-H522 lung): 3.75 µM | GI50 (TK-10 renal): 1830 nM | TGI (TK-10 renal): 3.27 µM
